The values below come from patent publication US6756382B2, “Amide substituted imidazoquinolines” (3M Innovative Properties Company, priority 1999, dated 2004).

By melting point is commonly meant the temperature, or range, at which the solid turns liquid.

Series [1] concerns tumor necrosis factor (α). The series is described as follows: Cytokine induction in human cells: tumor necrosis factor (α) secreted by PBMCs, ELISA. In kind it is cell-based. As to conditions: PBMC, incubated 18 to 24 hours, TNF determined by ELISA, read-out: Lowest Effective Concentration (μM) Tumor Necrosis Factor. The source says:
(§1) An in vitro human blood cell system was used to assess cytokine induction by compounds of the invention. Activity is based on the measurement of interferon and tumor necrosis factor (α) (IFN and TNF, respectively) secreted into culture media as described by Testerman et. al. In “Cytokine Induction by the Immunomodulators Imiquimod and S-27609”, Journal of Leukocyte Biology, 58, 365-372 (September, 1995).
(§2) Whole blood is collected by venipuncture into EDTA vacutainer tubes from healthy human donors. Peripheral blood mononuclear cells (PBMCs) are separated from whole blood by density gradient centrifugation using Histopaque®-1077 (Sigma Chemicals, St. Louis, Mo.). The PBMCs are suspended at 3-4×10^6 cells/mL in RPMI 1640 medium containing 10% fetal bovine serum, 2 mM L-glutamine and 1% penicillin/streptomycin solution (RPMI complete). The PBMC suspension is added to 48 well flat bottom sterile tissue culture plates (Costar, Cambridge, Mass. or Becton Dickinson Labware, Lincoln Park, N.J.) containing an equal volume of RPMI complete media containing test compound.
(§3) The compounds are solubilized in dimethyl sulfoxide (DMSO). The DMSO concentration should not exceed a final concentration of 1% for addition to the culture wells.
(§4) The solution of test compound is added at 60 μM to the first well containing RPMI complete and serial (three fold or ten fold) dilutions are made. The PBMC suspension is then added to the wells in an equal volume, bringing the test compound concentrations to the desired range. The final concentration of PBMC suspension is 1.5-2×10^6 cells/mL. The plates are covered with sterile plastic lids, mixed gently and then incubated for 18 to 24 hours at 37° C. in a 5% carbon dioxide atmosphere.
(§5) Following incubation the plates are centrifuged for 5-10 minutes at 1000 rpm (˜200×g) at 4° C. The cell culture supernatant is removed with a sterile polypropylene pipet and transferred to sterile polypropylene tubes. Samples are maintained at −30 to −70° C. until analysis. The samples are analyzed for interferon (α) by either ELISA or bioassay and for tumor necrosis factor (α) by ELISA.
Tumor necrosis factor (α) (TNF)concentration is determined using ELISA kits available from Genzyme, Cambridge, Mass.; R&D Systems, Minneapolis, Minn.; or Pharmingen, San Diego, Calif.
(§6) The table below lists the lowest concentration found to induce interferon and the lowest concentration found to induce tumor necrosis factor for each compound. […] Unless otherwise indicated, the interferon biosynthesis was determined by ELISA.

The next series has as its system interferon (α). Nature of the series: Cytokine induction in human cells: interferon secreted by PBMCs, ELISA. In kind it is cell-based. As to conditions: PBMC, incubated 18 to 24 hours, interferon determined by ELISA, read-out: Lowest Effective Concentration (μM) Interferon.
Excerpt: as §1, §2, §3, §4, §5
Interferon (α) concentration is determined by ELISA using a Human Multi-Species kit from PBL Biomedical Laboratories, New Brunswick, N.J.
as §6
(In general: An ELISA detects its analyte on a solid surface through an enzyme-linked reagent.)

SMILES strings stand for the structures. Structures can show the parent of a compound that is named as a salt.

In turn, `Cl.Nc1nc2ccccc2c2c1ncn2CCCCNC(=O)c1ccccc1.O` (hydrate or solvate) had a melting point of 254 to 256 °C.

The compound `CCCC(=O)NCCCCn1c(CC)nc2c(N)nc3ccccc3c21` [Example 200, N-[4-(4-amino-2-ethyl-1H-imidazo[4,5-c]quinolin-1-yl)butyl]butanamide] returned a melting point of 147.7 to 148.8 °C.

Consider `Nc1nc2ccccc2c2c1ncn2CCCCNC(=O)c1ccnc2ccccc12` [Example 49, N^4-[4-(4-Amino-1H-imidazo[4,5-c]quinolin-1-yl)butyl]-4-quinolinecarboxamide], for which the melting point lay within 214.5 to 215.2 °C.

`Cc1nc2c(N)nc3ccccc3c2n1CCCCNC(=O)C1CCCC1` [Example 201, N-[4-(4-amino-2-methyl-1H-imidazo[4,5-c]quinolin-1-yl)butyl]cyclopentanecarboxamide] gave a melting point of 168.6 to 169.8 °C.

Consider `COc1ccc(Cc2nc3c(N)nc4ccccc4c3n2CCCCNC(=O)c2ccc3ccccc3n2)cc1` [Example 61, N^2-{4-[4-Amino-2-(4-methoxybenzyl)-1H-imidazo [4,5-c]quinolin-1-yl]butyl}-2-quinolinecarboxamide], for which the melting point lay in the range of 95.1 to 97.4 °C.

Compound `Nc1nc2ccccc2c2c1ncn2CCCNC(=O)c1ccccc1` (as salt: hydrochloride) [Example 11, N^1-[3-(4-Amino-1H-imidazo[4,5-c]quinolin-1-yl)propyl]benzamide Hydrochloride] yielded a melting point of 265 to 270 °C.

`COCCc1nc2c(N)nc3ccccc3c2n1CCCCNC(=O)c1c[nH]c2ccccc12` [Example 59, N^3-{4-[4-Amino-2-(2-methoxyethyl)-1H-imidazo[4,5-c]quinolin-1-yl]butyl}-3-indolecarboxamide] came in with a melting point of 225.5 to 227.4 °C.

In the case of `Nc1nc2ccccc2c2c1ncn2CCCCNC(=O)c1ccc(OCC(F)(F)F)nc1` [Example 54, N^3-[4-(4-Amino-1H-imidazo[4,5-c]quinolin-1-yl)butyl]-6-(2,2,2-trifluoroethoxy)nicotinamide], the melting point is 192 to 194 °C (dec.).

Turning to `Cc1nc2c(N)nc3ccccc3c2n1CCCNC(=O)C(C)C` [Example 207, N-[3-(4-amino-2-methyl-1H-imidazo[4,5-c]quinolin-1-yl)propyl]-2-methylpropanamide], the melting point lay in the range of 239 to 240.1 °C.

Turning to `Cc1nc2c(N)nc3ccccc3c2n1CCCNC(=O)C1CCCCC1` [Example 205, N-[3-(4-amino-2-methyl-1H-imidazo[4,5-c]quinolin-1-yl)propyl]cyclohexanecarboxamide], the melting point lay within 234.4 to 235.4 °C.

Turning to `Nc1nc2ccccc2c2c1ncn2CCCCNC(=O)c1cn(Cc2ccccc2)c2ccccc12` [Example 42, N^3-[4-(4-Amino-1H-imidazo[4,5-c]quinolin-1-yl)butyl]-1-benzyl-1H-3-indolecarboxamide], the melting point is 139 °C (dec.).

`COCCc1nc2c(N)nc3ccccc3c2n1CCCCNC(=O)c1cncc(C#Cc2ccccc2)c1` [Example 65, N^5-{4-[4-Amino-2-(2-methoxyethyl)-1H-imidazo[4,5-c]quinolin-1-yl]butyl}-5-(2-phenyl-1-ethynyl)nicotinamide] registered a melting point of 76 to 78 °C.

Regarding `CCc1nc2c(N)nc3ccccc3c2n1CCCCNC(=O)C(C)C` [Example 199, N-[4-(4-amino-2-ethyl-1H-imidazo[4,5-c]quinolin-1-yl)butyl]-2-methylpropanamide], the melting point is 155.4 to 156.3 °C.

On to `Nc1nc2ccccc2c2c1ncn2CCCCNC(=O)c1ccc(Oc2ccccc2)cc1` [Example 64, N^1-[4-(4-Amino-1H-imidazo[4,5-c]quinolin-1-yl)butyl]-4-phenoxybenzamide], for which the melting point was in the range of 90.5 to 91.5 °C.

The compound `Cc1nc2c(N)nc3ccccc3c2n1CCCCNC(=O)C(C)C` [Example 202, N-[4-(4-amino-2-methyl-1H-imidazo[4,5-c]quinolin-1-yl)butyl]-2-methylpropanamide] showed a melting point of 159.7 to 160.7 °C.

The compound `Nc1nc2ccccc2c2c1nc(-c1ccccc1)n2CCCCNC(=O)c1cccnc1` [Example 66, N^3-[4-(4-Amino-2-phenyl-1H-imidazo[4,5-c]quinolin-1-yl)butyl]nicotinamide] returned a melting point of 84.5 to 86.1 °C.

In the case of `CCc1nc2c(N)nc3ccccc3c2n1CCCCNC(=O)C1CCCC1` [Example 197, N-[4-(4-amino-2-ethyl-1H-imidazo[4,5-c]quinolin-1-yl)butyl]cyclopentanecarboxamide], the melting point is 178.6 to 179.5 °C.

`CC(C(=O)NCCCCn1cnc2c(N)nc3ccccc3c21)c1ccc(-c2ccccc2)c(F)c1` (stereo not shown) [Example 56, N^1-[4-(4-Amino-1H-imidazo[4,5-c]quinolin-1-yl)butyl]-2-(2-fluoro-4-biphenylyl)propanamide] showed a melting point of 76.1 to 79.9 °C.

Consider `CCCCc1ccc(C(=O)NCCCCn2c(CCOC)nc3c(N)nc4ccccc4c32)nc1` [Example 58, N^2-{4-[4-Amino-2-(2-methoxyethyl)-1H-imidazo[4,5-c]quinolin-1-yl]butyl}-5-butyl-2-pyridinecarboxamide], for which the melting point lay in the range of 54.9 to 55.2 °C.

`CCOCc1nc2c(N)nc3ccccc3c2n1CCNC(=O)CCCCC1SCC2NC(=O)NC21` (stereo not shown) (as salt: trifluoroacetate) [Example 29, N^1-[2-(4-Amino-2-(ethoxymethyl)-1H-imidazo[4,5-c]quinolin-1-yl)ethyl]-5-(2-oxoperhydrothieno[3,4-d]imidazol-4-yl)pentanamide Ditrifluoroacetate] returned a melting point of 171 to 175 °C.

For the compound `Nc1nc2ccccc2c2c1nc(CCCOc1ccccc1)n2CCCNC(=O)c1ccc(Br)cc1` [Example 193, N-{3-[4-amino-2-(3-phenoxypropyl)-1H-imidazo[4,5-c]quinolin-1-yl]propyl}-4-bromobenzamide], the melting point lay in the range of 186.2 to 186.7 °C.

With `COCCc1nc2c(N)nc3ccccc3c2n1CCCCNC(=O)c1ccc(-n2cccc2)cc1` [Example 60, N^1-{4-[4-Amino-2-(2-methoxyethyl)-1H-imidazo[4,5-c]quinolin-1-yl]butyl}-4-(1-pyrrolyl)benzamide], the melting point lay in the range of 173 to 174.9 °C.

With `CCCC(=O)NCCCCn1c(C)nc2c(N)nc3ccccc3c21` [Example 203, N-[4-(4-amino-2-methyl-1H-imidazo[4,5-c]quinolin-1-yl)butyl]butanamide], the melting point lay in the range of 169.4 to 170.5 °C.

For the compound `Nc1nc2ccccc2c2c1ncn2CCCCNC(=O)c1ccc(CNCc2ccncc2)cc1` [Example 105], the values for the minimal effective concentration (in series [1]; in the series on interferon (α)) were 10 µM and 0.12 µM, respectively.

Regarding `Nc1nc2ccccc2c2c1ncn2CCCCNC(=O)c1ccc([N+](=O)[O-])cc1` [Example 87], the results for the minimal effective concentration (in series [1]; in the series with interferon (α)) were 30 µM and 3.33 µM, respectively.

On to `CC(=O)N(CCCCn1cnc2c(N)nc3ccccc3c21)Cc1ccccc1[N+](=O)[O-]` [Example 141], for which the minimal effective concentration was more than 30 µM in series [1] and 0.37 µM in the series on interferon (α).

On to `COC(=O)c1ccc(C(=O)NCCCCn2cnc3c(N)nc4ccccc4c32)cc1` [Example 100], for which the values for the minimal effective concentration (in series [1]; in the series on interferon (α)) were 3.33 µM and 10 µM, respectively.

Take `Nc1nc2ccccc2c2c1ncn2CCCCNC(=O)c1cccs1` [Example 86]: the minimal effective concentration in series [1] is 10 µM; in the series on interferon (α) it was 1.11 µM.

For the compound `CCCCOc1ccc(CN(CCCCn2cnc3c(N)nc4ccccc4c32)C(C)=O)cc1` [Example 123], the minimal effective concentration in series [1] is more than 30 µM; in the series on interferon (α), 3.33 µM.

With `COCCc1nc2c(N)nc3ccccc3c2n1CCCCNC(=O)c1ccccc1C` [Example 151], the figures for the minimal effective concentration (in series [1]; with interferon (α)) were more than 10 µM and 0.0001 µM, respectively.

Turning to `CC(=O)N(CCCCn1cnc2c(N)nc3ccccc3c21)Cc1ccncc1` [Example 143], the minimal effective concentration in series [1] is more than 30 µM; with interferon (α), 0.12 µM.

In the case of `CC(=O)N(CCCCn1cnc2c(N)nc3ccccc3c21)Cc1cccc2ccccc12` [Example 138], the minimal effective concentration in series [1] was more than 30 µM; in the series with interferon (α) it was 1.11 µM.

In the case of `CC(=O)N(CCCCn1cnc2c(N)nc3ccccc3c21)Cc1cc(Cl)ccc1[N+](=O)[O-]` [Example 126], the minimal effective concentration in series [1] is more than 30 µM; in the series with interferon (α), 3.33 µM.
